Laboratory results published in PMC12610274, “Identification of Marrubiin as a Cathepsin C Inhibitor for Treating Rheumatoid Arthritis” (Molecules, 2025).

Assays:
Cat G = molecular target: T1, Cat G (Homo sapiens, UniProt P08311); assay: Recombinant NSPs isolated enzyme assay, Cat G; type: biochemical; conditions: read-out: Cat G Enz (IC50: μM)
T1 construct: purchased MedChemExpress
Excerpt: The protocol for evaluating the inhibitory potency of compounds against other cathepsins referred to the CTSC activity assay. Recombinant human CTSB, CTSL, CTSS and CTSK for testing were also purchased from R&D Systems Biotechnology Company. Recombinant human Cat G, NE, and PR3 For testing were purchased from MedChemExpress. A multi-functional microplate reader was used to measure the absorption of Z-Leu-Arg-AMC at excitation/emission wavelengths of 380/460 nm to assess the activity changes of CTSB and CTSL, while the absorption of MCA-Arg-Pro-Lys-Pro-Val-Glu-NVAL-Trp-Arg-Lys(DNP)-NH2 at 320/405 nm was measured to evaluate the activity changes of CTSS and CTSK. Different assay buffers were prepared for diluting samples and measuring the activities of specific NSPs: a buffer containing 50 mM Tris and 750 mM NaCl (pH 7.4) was used for NE and PR3; a buffer containing 50 mM Tris, 750 mM NaCl, 5 mM EDTA (pH 7.4) was used for Cat G; and a buffer containing 25 mM MES, 50 mM NaCl, 5 mM DTT (pH 6.0) was used for CTSC. Synthetic substrates were employed to assess the activities of NSPs and CTSC: H-Gly-Arg-AMC for CTSC, N-MeSuc-Ala-Ala-Pro-Val-pNA for NE, aminobenzoyl-Val-Ala-Asp-Cys-Ala-Asp-Gln-ethylenediamine 2,4-dinitrophenyl for PR3, and N-Suc-Ala-Ala-Pro-Phe-pNA for Cat G. Each group of tests was independently repeated at least 3 times, and IC50 values were calculated using SPSS 10.0.

NE [1] = assay: NE activity in blood and bone marrow of mice; type: in vivo, C57BL/6 mice; conditions: 30 mg/kg daily gavage, 7 days
Procedure: A total of 25 C57BL/6 mice (6–8 weeks old, weighing approximately 20 g, with equal numbers of males and females) were randomly divided into five groups. Mice in the compound-treated groups were orally administered the compound once daily at doses of 0.3, 3, and 30 mg/kg for 7 consecutive days. […] Mice in the normal group were given an equal volume of normal saline at the same time points. The body weight, death rate, and behavior were observed and recorded daily for one week. After 7 days, bone marrow and blood samples were collected from the mice and lysed using 8% Triton X-100 buffer. The lysates were stored at −20 °C until testing. The activity assays for CTSC and NSPs were performed as described above. The mice were anesthetized and the tissues were taken for H&E staining.

NE [2] = assay: AIA model, serum NE activity; type: in vivo, Sprague-Dawley rats; conditions: rat AIA, high dose 60 mg/kg gavage, 15 days
Procedure: Thirty 4-week-old male Sprague-Dawley rats (weighing 120–130 g) were randomly divided into 6 groups (5 rats per group) after 1 week of adaptive feeding, namely the normal group, model group, low-dose experimental group (15 mg/kg), medium-dose experimental group (30 mg/kg), high-dose experimental group (60 mg/kg), and positive control group (30 mg/kg). Starting from Day 0 of the experiment, rats in the administration groups and model group were injected intradermally with 0.1 mL of CFA into the left hind paw to induce AIA, while rats in the normal group were injected intradermally with an equal volume (0.1 mL) of normal saline as a control. After 13 consecutive days of feeding, rats treated with CFA successfully developed typical AIA symptoms. […] During the experiment, the body weight, mental state, activity ability, hair color changes, and paw appearance changes of the rats were observed and recorded daily. In addition, on Day 0 of the experiment (baseline period), the basic paw volume of all rats was accurately measured using a plethysmometer, which served as a reference standard for subsequent evaluation of inflammation severity. From Day 13 to Day 28 of the experiment, the paw volume of the rats was measured repeatedly every 3 days. The degree of paw swelling was quantified by calculating the change in paw volume relative to the baseline. […] The cytokine levels in serum were measured. […]

T1 sequence (P08311 21-255): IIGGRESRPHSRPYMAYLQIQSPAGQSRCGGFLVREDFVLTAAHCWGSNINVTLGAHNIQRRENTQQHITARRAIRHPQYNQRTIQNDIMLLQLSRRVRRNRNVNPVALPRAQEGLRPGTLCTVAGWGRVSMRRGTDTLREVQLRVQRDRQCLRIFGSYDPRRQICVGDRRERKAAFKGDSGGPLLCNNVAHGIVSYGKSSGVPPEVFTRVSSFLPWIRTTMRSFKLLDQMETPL

For `C[C@@H]1C[C@H]2OC(=O)[C@@]3(C)CCC[C@@](C)([C@@H]23)[C@@]1(O)CCc1ccoc1` [Marrubiin, marrubiin], the IC50 (Cat G) was greater than 10 µM, the “remaining activity rate of NE” value (NE [1]; blood) was roughly 9.9% and the “remaining activity rate of NE” value (NE [1]; bone marrow) was roughly 20.9%. The “serum NE activity, % of control group” value (NE [2]) was roughly 47%.
